According to US20220030867A1 (priority 2018, published 2022):

Tests used:
[1] = tested on: Magnaporthe grisea (Pyricularia oryzae); test: whole plant or invertebrate; type: in vivo, Magnaporthe grisea on rice leaf segments cv. Ballila; conditions: foliar, read-out: control of Magnaporthe grisea
Fusarium culmorum [2] = test: whole plant or invertebrate; type: in vivo, Fusarium culmorum on wheat spikelets cv. Monsun; conditions: in Triticum aestivum, read-out: control of Fusarium culmorum
[3] = tested on: Glomerella lagenarium (Colletotrichum lagenarium); test: Glomerella lagenarium (Colletotrichum lagenarium) / liquid culture (anthracnose); type: cell-based; conditions: Colletotrichum orbiculare, growth inhibition photometrically 3-4 days after application, vs untreated control
Protocol: (§1) Conidia of the fungus from cryogenic storage are directly mixed into nutrient broth (PDB potato dextrose broth). After placing a (DMSO) solution of test compound into a microtiter plate (96-well format), the nutrient broth containing the fungal spores is added. The test plates are incubated at 24° C. and the inhibition of growth is measured photometrically 3-4 days after application.

[4] = tested on: Monographella nivalis (Microdochium nivale); test: Monographella nivalis (Microdochium nivale) / liquid culture (foot rot cereals); type: cell-based; conditions: growth inhibition photometrically 4-5 days after application, vs untreated control
Protocol: Monographella nivalis (Microdochium nivale)/Liquid Culture (Foot Rot Cereals)
as §1, with “determined” for “measured”, “4-5” for “3-4”

[5] = tested on: Magnaporthe grisea (Pyricularia oryzae); test: microbe, parasite or virus in culture; type: cell-based; conditions: read-out: control of Magnaporthe grisea
[6] = tested on: Botryotinia fuckeliana (Botrytis cinerea); test: Botryotinia fuckeliana (Botrytis cinerea) / liquid culture (gray mould); type: cell-based; conditions: growth inhibition photometrically 3-4 days after application, vs untreated control
Protocol: Botryotinia fuckeliana (Botrytis cinerea)/Liquid Culture (Gray Mould)
as §1, with “(Vogels” for “(PDB potato dextrose”, “determined” for “measured”

Fusarium culmorum [7] = test: microbe, parasite or virus in culture; type: cell-based; conditions: read-out: control of Fusarium culmorum
Sclerotinia sclerotiorum = Sclerotinia sclerotiorum / liquid culture (cottony rot); type: cell-based; conditions: growth inhibition photometrically 3-4 days after application, vs untreated control
Protocol: Sclerotinia sclerotiorum/Liquid Culture (Cottony Rot)
Mycelia fragments of a newly grown liquid culture of the fungus are directly mixed into nutrient broth (Vogels broth). After placing a (DMSO) solution of test compound into a microtiter plate (96-well format) the nutrient broth containing the fungal material is added. The test plates are incubated at 24° C. and the inhibition of growth is determined photometrically 3-4 days after application.

Row | SMILES | pest or weed control at 200 ppm [1] | pest or weed control at 200 ppm (Fusarium culmorum [2]) | inhibition of growth at 200 ppm [3] | inhibition of growth at 200 ppm [4] | inhibition of growth at 200 ppm [5] | inhibition of growth at 200 ppm [6] | inhibition of growth at 200 ppm (Fusarium culmorum [7]) | melting point | inhibition of growth at 20 ppm (Sclerotinia sclerotiorum)
1 | Cc1nc2c(F)cccc2cc1NC(=O)C(Cc1ccccc1)CC(C)(C)C (centres unmarked) [Compound E-97, 2-benzyl-N-(8-fluoro-2-methyl-3-quinolyl)-4,4-dimethyl-pentanamide] | ≥ 80% | ≥ 80% | ≥ 80% | ≥ 80% | ≥ 80% | ≥ 80% | ≥ 80% |  | 
2 | CC(C)(C)CC(Cc1ccccc1)C(=O)Nc1cnc2c(F)cccc2c1 (centres unmarked) [Compound E-98, 2-benzyl-N-(8-fluoro-3-quinolyl)-4,4-dimethyl-pentanamide] | ≥ 80% |  | ≥ 80% |  | ≥ 80% | ≥ 80% | ≥ 80% |  | 
3 | Cc1nc2c(F)cccc2cc1NC(=O)C(C)(Cc1ccccc1)CC1(C)CC1 (centres unmarked) [Compound E-99, 2-benzyl-N-(8-fluoro-2-methyl-3-quinolyl)-2-methyl-3-(1-methylcyclopropyl)propanamide] | ≥ 80% | ≥ 80% | ≥ 80% |  | ≥ 80% | ≥ 80% | ≥ 80% | 151 to 152 °C | 
4 | Cc1c(NC(=O)C(C)(Cc2ccccc2)CC2(C)CC2)cnc2c(F)cccc12 (centres unmarked) [Compound E-100, 2-benzyl-N-(8-fluoro-4-methyl-3-quinolyl)-2-methyl-3-(1-methylcyclopropyl)propanamide] | ≥ 80% | ≥ 80% | ≥ 80% |  | ≥ 80% | ≥ 80% | ≥ 80% | 163 to 164 °C | ≥ 80%
5 | Cc1c(NC(=O)[C@@](C)(Cc2ccccc2)CC(C)C)cnc2c(F)cccc12 [Compound F-4, (2R)-2-benzyl-N-(8-fluoro-4-methyl-3-quinolyl)-2,4-dimethyl-pentanamide] | ≥ 80% | ≥ 80% |  |  | ≥ 80% |  |  |  | ≥ 80%
6 | C=C(C)C[C@@](C)(Cc1ccccc1)C(=O)Nc1cnc2c(F)cccc2c1 [Compound F-21, (2S)-2-benzyl-N-(8-fluoro-3-quinolyl)-2,4-dimethyl-pent-4-enamide] | ≥ 80% | ≥ 80% |  |  | ≥ 80% |  |  |  | ≥ 80%
7 | C=C(Cl)C[C@H](Cc1ccccc1)C(=O)Nc1cc2cccc(F)c2nc1C [Compound F-26, (2S)-2-benzyl-4-chloro-N-(8-fluoro-2-methyl-3-quinolyl)pent-4-enamide] | ≥ 80% | ≥ 80% | ≥ 80% |  | ≥ 80% | ≥ 80% | ≥ 80% |  | ≥ 80%
8 | C=C(Cl)C[C@H](Cc1ccccc1)C(=O)Nc1cnc2c(F)cccc2c1C [Compound F-28, (2S)-2-benzyl-4-chloro-N-(8-fluoro-4-methyl-3-quinolyl)pent-4-enamide] |  |  | ≥ 80% | ≥ 80% | ≥ 80% | ≥ 80% | ≥ 80% |  | ≥ 80%
9 | Cc1nc2c(F)cccc2cc1NC(=O)[C@](C)(Cc1cccc(F)c1)CC(C)C [Compound F-29, (2S)-N-(8-fluoro-2-methyl-3-quinolyl)-2-[(3-fluorophenyl)methyl]-2,4-dimethyl-pentanamide] | ≥ 80% |  | ≥ 80% | ≥ 80% | ≥ 80% | ≥ 80% |  |  | ≥ 80%
10 | Cc1nc2c(F)cccc2cc1NC(=O)[C@@](C)(Cc1cccc(F)c1)CC(C)C [Compound F-30, (2R)-N-(8-fluoro-2-methyl-3-quinolyl)-2-[(3-fluorophenyl)methyl]-2,4-dimethyl-pentanamide] | ≥ 80% |  | ≥ 80% | ≥ 80% | ≥ 80% | ≥ 80% |  |  | ≥ 80%
11 | Cc1nc2c(F)cccc2cc1NC(=O)[C@@](C)(Cc1cccc(F)c1)CC(F)(F)F [Compound F-31, (2S)-4,4,4-trifluoro-N-(8-fluoro-2-methyl-3-quinolyl)-2-[(3-fluorophenyl)methyl]-2-methyl-butanamide] | ≥ 80% | ≥ 80% | ≥ 80% |  |  | ≥ 80% |  |  | ≥ 80%
12 | Cc1nc2c(F)cccc2cc1NC(=O)[C@](C)(Cc1cccc(F)c1)CC(F)(F)F [Compound F-32, (2R)-4,4,4-trifluoro-N-(8-fluoro-2-methyl-3-quinolyl)-2-[(3-fluorophenyl)methyl]-2-methyl-butanamide] | ≥ 80% | ≥ 80% | ≥ 80% |  | ≥ 80% | ≥ 80% | ≥ 80% |  | ≥ 80%
13 | Cc1nc2c(F)cccc2cc1NC(=O)[C@H](Cc1ccccc1)CC(C)(C)C [Compound F-33, (2S)-2-benzyl-N-(8-fluoro-2-methyl-3-quinolyl)-4,4-dimethyl-pentanamide] |  |  | ≥ 80% |  | ≥ 80% | ≥ 80% | ≥ 80% |  | 
14 | Cc1nc2c(F)cccc2cc1NC(=O)[C@@H](Cc1ccccc1)CC(C)(C)C [Compound F-34, (2R)-2-benzyl-N-(8-fluoro-2-methyl-3-quinolyl)-4,4-dimethyl-pentanamide] | ≥ 80% | ≥ 80% | ≥ 80% | ≥ 80% | ≥ 80% | ≥ 80% | ≥ 80% |  | ≥ 80%
15 | Cc1c(NC(=O)[C@H](Cc2ccccc2)CC(C)(C)C)cnc2c(F)cccc12 [Compound F-35, (2S)-2-benzyl-N-(8-fluoro-4-methyl-3-quinolyl)-4,4-dimethyl-pentanamide] | ≥ 80% | ≥ 80% | ≥ 80% | ≥ 80% | ≥ 80% | ≥ 80% | ≥ 80% |  | 
16 | Cc1nc2c(F)cccc2cc1NC(=O)[C@H](Cc1ccccc1)CC1(C)CC1 [Compound F-37, (2S)-2-benzyl-N-(8-fluoro-2-methyl-3-quinolyl)-3-(1-methylcyclopropyl)propanamide] |  | ≥ 80% | ≥ 80% |  | ≥ 80% | ≥ 80% | ≥ 80% |  | 
17 | Cc1nc2c(F)cccc2cc1NC(=O)[C@@H](Cc1ccccc1)CC1(C)CC1 [Compound F-38, (2R)-2-benzyl-N-(8-fluoro-2-methyl-3-quinolyl)-3-(1-methylcyclopropyl)propanamide] |  | ≥ 80% | ≥ 80% | ≥ 80% | ≥ 80% | ≥ 80% | ≥ 80% |  | ≥ 80%
18 | Cc1c(NC(=O)[C@H](Cc2ccccc2)CC2(C)CC2)cnc2c(F)cccc12 [Compound F-39, (2S)-2-benzyl-N-(8-fluoro-4-methyl-3-quinolyl)-3-(1-methylcyclopropyl)propanamide] |  |  | ≥ 80% |  | ≥ 80% | ≥ 80% | ≥ 80% |  | 
19 | C=C(Cl)C[C@](C)(Cc1ccccc1)C(=O)Nc1cnc2c(F)cccc2c1C [Compound F-41, (2S)-2-benzyl-4-chloro-N-(8-fluoro-4-methyl-3-quinolyl)-2-methyl-pent-4-enamide] | ≥ 80% | ≥ 80% | ≥ 80% | ≥ 80% |  | ≥ 80% |  |  | ≥ 80%
